Read-outs that look alike come from different tables or passages of the source.
Assays:
[1] = Parkinson's patients with a GBA-1 mutation; Peterschmitt et al., 2021; cited from earlier work
[2] = clinical; settings: both, human, in vivo
Method: (§1) This was a Phase 1, non-randomized, open-label, 2-cohort, cross-over, DDI study in healthy male and female subjects.
(§2) In Cohort 1, a single oral dose 100 mg/25 mg levodopa-carbidopa (Sinemet®) IR was administered alone on Day 1.

[3] = both, human, in vivo
[4] = clinical; settings: both, human, in vivo; remark: listed apart in the source
Method: as §1
(§3) In Cohort 2, a single oral dose 100 mg/25 mg levodopa-benserazide (Madopar®) IR was administered alone on Day 1.

[5] = both, human, in vivo; remark: listed apart in the source
Method: as §1, §3

[6] = clinical; settings: both, human, in vivo, geometric mean t1/2
[7] = both, human, in vivo; remark: listed apart in the source
Method: as §1, §2

[8] = BIA 28-6156-110 DDI, rosuvastatin portion; assay type: in vivo, human
Method: In Cohort 1, a single oral dose of 10 mg rosuvastatin was administered alone on Day 1. No drug was administered on Day 2. From Day 3 to Day 8, a single daily dose of 60 mg Compound A was administered.

[9] = BIA 28-6156-107 DDI: effect of single-dose Compound A on single-dose PK of carbidopa-levodopa; settings: both, human, in vivo, oral; for Tmax: Median Tmax, carbidopa
[10] = BIA 28-6156-105: safety and tolerability; settings: 400 mg moxifloxacin
[11] = BIA 28-6156-105: continuous cardiac monitoring, concentration-QTc analysis; settings: 400 mg moxifloxacin, positive control
[12] = BIA 28-6156-110 DDI, metformin portion; assay type: in vivo, human
Method: In Cohort 2, a single oral dose 500 mg metformin was administered alone on Day 1. From Day 2 to Day 7, a single daily dose of 60 mg Compound A was administered.

[13] = 10 mg rosuvastatin + Compound A (60 mg daily) vs rosuvastatin alone
[14] = 500 mg metformin + Compound A (60 mg daily) vs metformin alone

Q: For `CC(C)(NC(=O)O[C@@H]1CN2CCC1CC2)c1csc(-c2ccc(F)cc2)n1` [venglustat], which “impact on slowing the progression of the condition” value [1] is on record?
A: Its value is “no impact on slowing the progression of the condition”.

Q: For `N[C@@H](Cc1ccc(O)c(O)c1)C(=O)O` [Levodopa, levodopa], which half-life [2] is on record?
A: Its half-life is 1.69 h.

Q: What about the “AUC0-inf ratio of geometric least squares means (point estimate)” value [3] of the same molecule?
A: Its value is 1.035.

Q: What about the “AUC0-last ratio of geometric least squares means (point estimate)” value [3] of the same molecule?
A: Its value is 1.048.

Q: What about the “Cmax ratio of geometric least squares means (point estimate)” value [3] of the same molecule?
A: Its value is 1.061.

Q: What about the “Median Tmax” value [3] of the same molecule?
A: The value was 0.5 h.

Q: What about the Tmax [4] of the same molecule?
A: Its Tmax is 0.77 h.

Q: And the AUC(0-t) ([4]; AUC0-t)?
A: Its AUC(0-t) is 1940 ng·h/mL.

Q: And the t1/2 [5]?
A: Its t1/2 is 2.26 h.

Q: And the half-life [6]?
A: The half-life was 1.7 h.

Q: What about the AUC(0-t) [7] of the same molecule?
A: Its AUC(0-t) is 1534 ng·h/mL.

Q: What about the Tmax [7] of the same molecule?
A: The Tmax was 1.00 h.

Q: Which “AUC0-inf ratio of geometric least squares mean, estimate” value [8, 13] does the source give for `CC(C)c1nc(N(C)S(C)(=O)=O)nc(-c2ccc(F)cc2)c1/C=C/[C@@H](O)C[C@@H](O)CC(=O)O` [rosuvastatin] here?
A: The value was 3.041.

Q: And the “AUC0-t ratio of geometric least squares mean, estimate” value [8, 13]?
A: The value was 3.437.

Q: What about the “Cmax ratio of geometric least squares mean, estimate” value [8, 13] of the same molecule?
A: The value was 3.467.

Q: And the “increase of rosuvastatin PK” value ([8]; with Compound A vs alone)?
A: The value was “about 3 fold”.

Q: What about the “increased maximal exposure to rosuvastatin, Cmax” value ([8]; with Compound A vs alone) of the same molecule?
A: The value was 347%.

Q: What about the “increased systemic exposure to rosuvastatin, AUC0-inf” value ([8]; with Compound A vs alone) of the same molecule?
A: Its value is 304%.

Q: And the “increased systemic exposure to rosuvastatin, AUC0-t” value ([8]; with Compound A vs alone)?
A: Its value is 344%.

Q: Which “AUC0-last ratio of geometric least squares means (point estimate)” value [3] does the source give for `C[C@@](Cc1ccc(O)c(O)c1)(NN)C(=O)O` [carbidopa] here?
A: The value was 0.909.

Q: And the “Cmax ratio of geometric least squares means (point estimate)” value [3]?
A: Its value is 1.031.

Q: What about the “decrease of systemic exposure” value [3] of the same molecule?
A: The value was “approximately 9%”.

Q: What about the “increase of maximal exposure” value [3] of the same molecule?
A: The value was “approximately 3%”.

Q: What about the Tmax ([9]; carbidopa-levodopa alone) of the same molecule?
A: Its Tmax is 2.5 h.

Q: And the Tmax ([9]; coadministered with Compound A)?
A: The Tmax was 2 h.

Q: What about the half-life ([9]; geometric mean t1/2, carbidopa, both treatment conditions) of the same molecule?
A: Its half-life is 2 to 2.3 h.

Q: With `COc1c(N2C[C@@H]3CCCN[C@@H]3C2)c(F)cc2c(=O)c(C(=O)O)cn(C3CC3)c12` [Moxifloxacin, moxifloxacin, reference compound] as the molecule, how does the “Grade 3 (severe) TEAE considered related” value [10] read?
A: Its value is “hypersensitivity”.

Q: And the “effect on ΔΔQTcF (concentration-QTc analysis)” value [11]?
A: Its value is “above 5 msec”.

Q: What does the source list for `CN(C)C(=N)N=C(N)N` [metformin]?
A: AUC0-inf ratio of geometric least squares mean, estimate [12, 14]: 0.940; AUC0-t ratio of geometric least squares mean, estimate [12, 14]: 0.938; Cmax ratio of geometric least squares mean, estimate [12, 14]: 0.950; effect of multiple oral doses of Compound A on metformin PK ([12]; single oral dose of metformin): no effect
